In patent US9365481B2, “Cyclohexenone compositions and process for making thereof” (Golden Biotechnology Corporation, priority 2013, dated 2016):

Test system: H838
Experiment: CCK-8 cell viability assay, H838
Assay type: cell-based, human
Settings: H838 cells, statement in words
Method: Cell viability was measured using Cell Counting Kit-8 (CCK-8, Enzo Life Sciences, Farmingdale, N.Y.). In this assay, WST-8 is reduced by dehydrogenases in cells to produce a yellow-colored product (formazan), which is soluble in culture medium. The amount of formazan generated is directly proportional to the number of living cells. After treatment, CCK-8 solution was added to each well and incubated for 4 h. The concentration of formazan was measured with a spectrophotometer at an absorbance wavelength of 450 nm. Cell viability was expressed as a percentage of the corresponding control.
To determine whether the cytotoxic effects of Compound 1 correlate with the presence of Ras mutations, cell lines derived from human lung cancer (A549 and H838), liver cancer (HepG2 and Hep3B), and leukemia (K562 and THP-1) with wild-type Ras (H838, Hep3B, and K562) or mutant Ras (A549, HepG2, and THP-1) were used. Cell viability was measured after 48 h of Compound 1 treatment.
Next, the IC50 values for Compound 1 analogs (Compounds 29, 30 and 31), a metabolite (Compound 27), and analogues isolated from filamentous A. camphorata (Compounds 25, 26, 28) were determined in H838 cells. […] (Table 1)

## COC1=C(OCc2ccccc2)C(O)C(C/C=C(\C)CC/C=C(\C)CCC=C(C)C)C(C)C1=O (stereo not shown) [Compound 31, 3-(benzyloxy)-4-hydroxy-2-methoxy-6-methyl-5-[(2E,6E)-3,7,11-trimethyldodeca-2,6,10-trien-1-yl]cyclohex-2-en-1-one]
  cytotoxic effect compared with Compound 1: even more cytotoxic than Compound 1
